US20030170218A1, “Fungicide and method for producing the same” (Biobank Co., Ltd., priority 2002, published 2003)

Key:
[1] = test system: enterohemorrhagic E. coli O-157; conditions: Japanese Patent Laid-Open No. 300284/2000; cited from earlier work
Trichophyton rubrum = assay: Agar dilution method, colony growth on sample plate; assay type: cell-based; conditions: T. rubrum, 28° C., 12 days; for Diameter of the colony: 2 mL sample + 18 mL Sabourand agar medium, 5 mm colony disk; for Antifungal activity: 100-[(x-5)/(y-5)x100] vs standard plate, 2 mL sample + 18 mL medium
pH measurement = assay type: physicochemical; conditions: sample plate: 2 mL sample + 18 mL Sabourand agar medium
[2] = test system: Trichophyton mentagrophytes; assay: Agar dilution method, colony growth on sample plate; assay type: cell-based; conditions: T. mentagrophytes, 28° C., 12 days; for Diameter of the colony: 2 mL sample + 18 mL Sabourand agar medium, 5 mm colony disk; for Antifungal activity: 100-[(x-5)/(y-5)x100] vs standard plate, 2 mL sample + 18 mL medium
Pythium graminicola = assay: Agar dilution method on potato dextrose agar; assay type: cell-based; conditions: 2 mL sample + 18 mL potato dextrose agar
Rosellinia necatrix = assay: Agar dilution method on potato dextrose agar; assay type: cell-based; conditions: 2 mL sample + 18 mL potato dextrose agar
Fusarium oxysporum = assay: Agar dilution method on potato dextrose agar; assay type: cell-based; conditions: 2 mL sample + 18 mL potato dextrose agar
Helicobasidium mompa = assay: Agar dilution method on potato dextrose agar; assay type: cell-based; conditions: 2 mL sample + 18 mL potato dextrose agar

SMILES	Diameter of the colony (Trichophyton rubrum) [mm]	Antifungal activity (Trichophyton rubrum) [%]	PH of the Medium (pH measurement)	Diameter of the colony [2] [mm]	Antifungal activity [2] [%]	also measured
O=C(O)C(O)Cc1ccccc1 (stereo not shown) [phenyllactic acid]	–	–	–	–	–	antibacterial activity [1]: strong antibacterial activity
O=C(O)CC(=O)O [Comp. Ex. 6, malonic acid]	5.5 ± 0.0	99	2.91	5.5 ± 0.0	99	–
CC(=O)O [Comp. Ex. 8, acetic acid]	5.4 ± 0.3	99	4.12	5.7 ± 0.3	99	–
O=C(O)CC(O)(CC(=O)O)C(=O)O [Comp. Ex. 3, citric acid]	26.5 ± 1.5	44	–	14.8 ± 0.7	80	–
O=C(O)C(=O)O [Comp. Ex. 5, oxalic acid]	36.5 ± 1.1	18	4.30	17.6 ± 0.1	74	–
O=C([O-])c1ccccc1C(=O)O.[K+] [Comp. Ex. 2, potassium hydrogen phthalate]	21.0 ± 1.5	58	–	51.1 ± 2.4	6	–
CC(O)C(=O)O (stereo not shown) [Comp. Ex. 7, lactic acid]	18.0 ± 5.0	66	3.46	17.7 ± 1.4	74	–
O=C([O-])c1ccccc1C(=O)O.[K+] [Comparative Example 12, potassium hydrogen phthalate]	–	–	–	–	–	Diameter of the colony (Pythium graminicola; […]): 13.1 ± 0.6 mm; Antifungal activity (Pythium graminicola; vs standard plate): 88%; Diameter of the colony (Rosellinia necatrix; […]): 70.3 ± 0.0 mm; Antifungal activity (Rosellinia necatrix; vs standard plate): 5%; Diameter of the colony (Fusarium oxysporum; […]): 54.1 ± 4.1 mm; Antifungal activity (Fusarium oxysporum; vs standard plate): 5%; Diameter of the colony (Helicobasidium mompa; […]): 8.1 ± 0.7 mm; Antifungal activity (Helicobasidium mompa; vs standard plate): 95%
